The target of one experiment is His-GST-PARP7 (Homo sapiens (Human), UniProt Q7Z3E1). Put plainly: PARP7 biochemical assay. As to conditions: read-out: PARP7 IC50.
Experiment [1] concerns NCI-H1373 (human lung adenocarcinoma) cells. Put plainly: Cell proliferation assay (CellTiter-Glo), NCI-H1373. The experiment is classed as cell-based. As to conditions: 6 days, CellTiter-Glo, read-out: NCI-H1373 GI50. Background: ATP-based viability assays read luminescence as a measure of living cells.
Experiment [2] has as its system HARA (human lung squamous cell carcinoma) cells. Put plainly: Cell proliferation assay (CellTiter-Glo), HARA. The experiment is classed as cell-based. The following applies: 6 days, CellTiter-Glo, read-out: HARA GI50.

Where two headings read alike, the source gives them in different places.

Chain of His-GST-PARP7 (Q7Z3E1 whole entry): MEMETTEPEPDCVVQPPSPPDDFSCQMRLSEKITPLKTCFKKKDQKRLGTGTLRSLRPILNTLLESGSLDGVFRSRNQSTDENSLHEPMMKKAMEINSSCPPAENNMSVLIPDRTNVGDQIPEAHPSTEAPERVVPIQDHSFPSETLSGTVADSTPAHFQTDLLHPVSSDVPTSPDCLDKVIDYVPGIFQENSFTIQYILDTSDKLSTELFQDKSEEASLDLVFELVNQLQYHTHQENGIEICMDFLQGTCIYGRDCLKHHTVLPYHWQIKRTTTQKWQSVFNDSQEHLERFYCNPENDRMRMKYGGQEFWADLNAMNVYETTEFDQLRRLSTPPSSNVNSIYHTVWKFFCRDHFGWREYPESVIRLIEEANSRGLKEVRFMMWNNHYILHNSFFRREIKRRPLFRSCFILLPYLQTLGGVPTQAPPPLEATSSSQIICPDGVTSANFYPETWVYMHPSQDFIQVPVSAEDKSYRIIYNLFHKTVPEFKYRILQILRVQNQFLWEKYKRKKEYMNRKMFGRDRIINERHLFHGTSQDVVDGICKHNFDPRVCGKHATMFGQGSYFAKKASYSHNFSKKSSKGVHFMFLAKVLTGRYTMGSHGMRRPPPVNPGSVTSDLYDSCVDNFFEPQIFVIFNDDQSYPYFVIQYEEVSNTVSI

Turning to “6-(4-(5-((7-Cyclobutoxy-4-oxo-3,4-dihydrophthalazin-1-yl)methyl)-2-fluorobenzoyl)-6,6-difluoro-1,4-diazepan-1-yl)nicotinonitrile [Example 125]”, at His-GST-PARP7, the IC50 was less than 0.05 µM. Also, the GI50 was 0.1 to 1 µM in experiment [1] and greater than 5 µM in experiment [2].
For `CC#Cc1ccc2c(=O)[nH]nc(Cc3ccc(F)c(C(=O)N4CCN(c5cc(C(=O)NC)ccn5)CC4)c3)c2c1` [Example 56, 2-(4-(2-Fluoro-5-((4-oxo-7-(prop-1-ynyl)-3,4-dihydrophthalazin-1-yl)methyl)benzoyl)piperazin-1-yl)-N-methylisonicotinamide], the IC50 on His-GST-PARP7 was less than 0.05 µM. The GI50 in experiment [1] (Homo sapiens, NCI-H1373, 144 h) is 0.1 to 1 µM; in experiment [2] (Homo sapiens, 144 h) it was greater than 5 µM.
Regarding `CC#Cc1ccc2c(=O)[nH]nc(Cc3ccc(F)c(C(=O)N4CCN(c5ccc(C#N)cn5)CC(F)(F)C4)c3)c2c1` [Example 80, 6-(6,6-Difluoro-4-(2-fluoro-5-((4-oxo-7-(prop-1-ynyl)-3,4-dihydrophthalazin-1-yl)methyl)benzoyl)-1,4-diazepan-1-yl)nicotinonitrile], the IC50 at His-GST-PARP7 was less than 0.05 µM. Also, the GI50 in experiment [1] (Homo sapiens, NCI-H1373, 144 h) is 0.1 to 1 µM; in experiment [2] (Homo sapiens, 144 h), 1 to 5 µM.
For the compound `N#Cc1ccc(N2CCN(C(=O)c3cc(Cc4n[nH]c(=O)c5cccnc45)ccc3F)CC2)nc1` [Example 92, 6-(4-(2-Fluoro-5-((5-oxo-5,6-dihydropyrido[2,3-d]pyridazin-8-yl)methyl)benzoyl)piperazin-1-yl)nicotinonitrile], at His-GST-PARP7, the IC50 lay in the range of 0.05 to 0.1 µM. Moreover, the GI50 in experiment [1] (Homo sapiens, NCI-H1373, 144 h) is greater than 5 µM; in experiment [2] (Homo sapiens, 144 h) it was greater than 5 µM.
Take `N#Cc1cnc(N2CCN(C(=O)c3cc(Cc4n[nH]c(=O)c5ccc(OC6CCC6)cc45)ccc3F)CC2)cc1C(F)(F)F` [Example 132, 6-(4-(5-((7-cyclobutoxy-4-oxo-3,4-dihydrophthalazin-1-yl)methyl)-2-fluorobenzoyl)piperazin-1-yl)-4-(trifluoromethyl)nicotinonitrile]: the GI50 in experiment [1] (Homo sapiens, NCI-H1373, 144 h) is less than 0.1 µM; in experiment [2] (Homo sapiens, 144 h), 1 to 5 µM.
Consider `C#CCNc1ccc2c(=O)[nH]nc(Cc3ccc(F)c(C(=O)N4CCn5c(nnc5C(F)(F)F)C4)c3)c2c1` [Example 185, 4-(4-Fluoro-3-(3-(trifluoromethyl)-5,6,7,8-tetrahydro-[1,2,4]triazolo[4,3-a]pyrazine-7-carbonyl)benzyl)-6-(prop-2-yn-1-ylamino)phthalazin-1(2H)-one], for which the IC50 at His-GST-PARP7 fell in the range of 0.1 to 0.5 µM. Besides, in experiment [1] (Homo sapiens, NCI-H1373, 144 h), the GI50 was greater than 5 µM.
Regarding `N#Cc1ccc(N2CCN(C(=O)c3cc(Oc4n[nH]c(=O)c5ccccc45)ccc3F)CC2)nc1` [Example 190, 6-(4-(2-fluoro-5-((4-oxo-3,4-dihydrophthalazin-1-yl)oxy)benzoyl)piperazin-1-yl)nicotinonitrile], the IC50 on His-GST-PARP7 is 0.1 to 0.5 µM. For the same compound, the GI50 in experiment [1] (Homo sapiens, NCI-H1373, 144 h) was 1 to 5 µM.
As to `CC#Cc1ccc2c(=O)[nH]nc(C(C)OCCC(=O)N3CCN(c4ncc(C(F)(F)F)cn4)CC3)c2c1` (stereo not drawn) [Example 192, 4-(1-(3-Oxo-3-(4-(5-(trifluoromethyl)pyrimidin-2-yl)piperazin-1-yl)propoxy)ethyl)-6-(prop-1-ynyl)phthalazin-1(2H)-one], the IC50 at His-GST-PARP7 was less than 0.05 µM. Moreover, in experiment [1] (Homo sapiens, NCI-H1373, 144 h), the GI50 was in the range of 0.1 to 1 µM.
For `CC#Cc1ccc2c(=O)[nH]nc(Cc3ccc(F)c(C(=O)NCc4nnc(C(F)(F)F)o4)c3)c2c1` [Example 199, 2-Fluoro-5-((4-oxo-7-(prop-1-ynyl)-3,4-dihydrophthalazin-1-yl)methyl)-N-((5-(trifluoromethyl)-1,3,4-oxadiazol-2-yl)methyl)benzamide], in that order: greater than 2 µM and 1 to 5 µM.
On to `CC#Cc1ccc2c(=O)[nH]nc(Cc3ccc(F)c(C(=O)N(C)C4CN(c5ccc(C#N)cn5)C4)c3)c2c1` [Example 201, N-(1-(5-Cyanopyridin-2-yl)azetidin-3-yl)-2-fluoro-N-methyl-5-((4-oxo-7-(prop-1-yn-1-yl)-3,4-dihydrophthalazin-1-yl)methyl)benzamide], for which the IC50 at His-GST-PARP7 fell in the range of 0.5 to 2 µM. In experiment [1] (Homo sapiens, NCI-H1373, 144 h), the GI50 is 1 to 5 µM.

In general, IC50 refers to the midpoint of a concentration-inhibition curve. As a reminder, the GI50 is the concentration that inhibits growth by half.

These data come from patent US20260055079A1, “PHTHALAZINONE COMPOUNDS AS PARP7 INHIBITORS” (AZKARRA THERAPEUTICS, INC., priority 2022, published 2026).
